Measured values published in paper PMC3712822 (Pharmacotherapy, 2011).
Where two headings read alike, the source gives them in different places. Values belong to the compound of their own block, whether it stands above or below them.

Experiments:
[1] = patients taking atorvastatin; cited from earlier work
human myocytes = settings: in vitro; cited from earlier work
[2] = for AUC(0-inf) / half-life / Tmax / Cmax: human, plasma, oral; for AUC(0-inf): AUC0–∞; for AUC(0-inf) / Tmax / Cmax: median (IQR); for half-life: harmonic mean ± SD; for Cmax: atorvastatin + clarithromycin 500 mg twice/day
CYP3A [3] = settings: cited from earlier work
CYP3A [4] = settings: classification by the United States Food and Drug Administration; cited from earlier work
[5] = Plasma clarithromycin partial AUC in the atorvastatin plus clarithromycin phase; type: in vivo; settings: human, oral, 500 mg, Partial AUC of clarithromycin (hrs 2–10), clarithromycin 500 mg twice/day, day 4, mean ± SD
[6] = 20 mg, CYP3A5 expressors (n=10), atorvastatin only
[7] = 20 mg, CYP3A5 nonexpressors (n=13), atorvastatin only
[8] = CYP3A5 expressors (n=10), atorvastatin + clarithromycin
[9] = CYP3A5 nonexpressors (n=13), atorvastatin + clarithromycin

Structure (SMILES): CC(C)c1c(C(=O)Nc2ccccc2)c(-c2ccccc2)c(-c2ccc(F)cc2)n1CC[C@@H](O)C[C@@H](O)CC(=O)O [atorvastatin acid, atorvastatin]
- Patients experiencing muscle-related adverse effects [1]: 3–8%

- AUC0–∞ higher in nonexpressors than in expressors ([2]; atorvastatin-only phase, p=0.038): 36%
- AUC(0-inf) [2, 6]: 34.9 ng·h/mL
- AUC(0-inf) [2, 7]: 47.6 ng·h/mL
- half-life [2, 6]: 654 ± 270 min
- half-life [2, 7]: 816 ± 312 min
- Tmax [2, 6]: 2 h
- Tmax [2, 7]: 1 h
- AUC(0-inf) [2, 8]: 110 ng·h/mL
- AUC(0-inf) [2, 9]: 127 ng·h/mL
- Cmax ([2]; CYP3A5 expressors (n=10)): 4.2 ng/mL
- Cmax ([2]; CYP3A5 nonexpressors (n=13)): 4.2 ng/mL
- half-life [2, 8]: 1160 ± 324 min
- half-life [2, 9]: 1150 ± 312 min
- Tmax [2, 8]: 5 h
Structure (SMILES): CC(C)c1c(C(=O)Nc2ccccc2)c(-c2ccccc2)c(-c2ccc(F)cc2)n1CC[C@@H]1C[C@@H](O)CC(=O)O1 [atorvastatin lactone]
- Toxicity to human myocytes relative to the acid form (human myocytes): more toxic
- Affinity for CYP3A relative to atorvastatin acid (CYP3A [3]): higher affinity

- AUC ([5]; CYP3A5 expressors): 17700 µg·h/mL
- AUC ([5]; CYP3A5 nonexpressors): 21900 µg·h/mL
Structure (SMILES): CC[C@H]1OC(=O)[C@H](C)[C@@H](O[C@H]2C[C@@](C)(OC)[C@@H](O)[C@H](C)O2)[C@H](C)[C@@H](O[C@@H]2O[C@H](C)C[C@H](N(C)C)[C@H]2O)[C@](C)(OC)C[C@@H](C)C(=O)[C@H](C)[C@@H](O)[C@]1(C)O [clarithromycin]
- CYP3A inhibitor classification (CYP3A [4]): strong CYP3A inhibitor
